Patent publication US20240352000A1, “NOVEL PYRIMIDINE-2,4-DIAMINE DERIVATIVES, PREPARATION METHOD THEREFOR, AND PHARMACEUTICAL COMPOSITION CONTAINING SAME AS ACTIVE INGREDIENT FOR PREVENTION OR TREATMENT OF CANCER” (KOREA RESEARCH INSTITUTE OF CHEMICAL TECHNOLOGY, priority 2021, published 2024)

Assays:
EGFR del19/T790M = EGFR del19/T790M (Homo sapiens (Human), UniProt P00533, DEL746-750/T790M); assay: HTRF enzyme assay, EGFR del19/T790M mutant enzyme; assay type: biochemical; settings: recombinant enzyme, 37° C. 2 hours
Protocol: An experiment to measure the activity of the compounds of the present invention against EGFR mutant enzymes was performed as follows using the HTRF system sold by Cisbio. For the EGFR del19/T790M mutant enzyme, a recombinant protein provided by Carna Biosciences was purchased and used, and for the EGFR del19/T790M/C797S mutant enzyme, a protein provided by SignalChem was purchased and used as an enzyme source.
(§1) The composition of the assay buffer used for measuring the activity was 50 mM Tris-HCl pH 7.5, 100 mM NaCl, 7.5 mM MgCl2, 3 mM KCl, 0.01% Tween 20, 0.1% BSA, and 1 mM DTT. Here, an enzyme reaction was performed using ATP at a concentration of […] and a peptide substrate labeled with biotin at a concentration of […]. Analysis of the inhibitory effect of the compounds against the EGFR activity was conducted according to the following analysis reaction recipe. • Component 1: 4 μL of an EGFR mutant enzyme • Component 2: 2 μL of a compound solution • Component 3: 4 μL of ATP and a peptide labeled with biotin
(§2) The enzyme reaction was started by first mixing Component 1 and Component 2 and then adding Component 3. After reaction at 37° C. for 2 hours, […] of measurement solution consisting of streptavidin-XL665 and europium-labeled anti-phosphotyrosine antibody provided by Cisbio was added to the enzyme reaction solution and reacted at room temperature for 1 hour. Finally, the ratio of fluorescence values at 615 nm and 665 nm was obtained using the Envision equipment from Perkin-Elmer to quantitatively measure the enzyme activity and confirmed the inhibitory ability of the compounds. The measurement values measured at seven compound concentrations were analyzed using the Prism program (version 5.01, Graphpad Software, Inc.), and the IC50 value, which is an indicator of the inhibitory ability of the compound, was calculated.

EGFR A763_Y764insFHEA = EGFR A763_Y764insFHEA (Homo sapiens (Human), UniProt P00533, INS763FHEA); assay: HTRF enzyme assay, EGFR Ex20 insertion mutant enzyme; assay type: biochemical; settings: recombinant enzyme, 37° C. 2 hours
Protocol: An experiment to measure the activity of the compounds of the present invention against EGFR mutant enzymes was performed as follows using the HTRF system sold by Cisbio. For the EGFR mutant enzyme, EGFR A763_Y764insFHEA enzyme, a recombinant protein provided by SignalChem was purchased and used.
as §1, §2

[1] = system: Ba/F3 EGFR V769_D770insASV; assay: CellTiter-Glo cell growth, Ba/F3 EGFR Ex20 insertion mutant; assay type: cell-based; settings: 72 hours
Protocol: An experiment to measure the activity of the compounds of the present invention against the Ba/F3 EGFR V769_D770insASV mutant cell line was performed as follows using the CellTiter-Glo system sold by Promega. The CellTiter-Glo assay is a method to confirm the cell viability by measuring ATP present in cells in cell culture. For the Ba/F3 EGFR V769_D770insASV mutant cell line, a cell line provided by Crown Bioscience was purchased and used. The Ba/F3 EGFR V769_D770insASV mutant cell line was cultured in RPMI containing 10% FBS and 1% penicillin-streptomycin with 1 μg/ml of puromycin in an incubator at 37° C. and 5% CO2.
Analysis of the inhibitory ability effect of the compounds against the EGFR mutant cell growth was conducted according to the following analysis reaction recipe.
(§3) 1000 cells/100 μL were passaged and cultured in a 96-well cell culture plate, and after 24 hours, treated with the compound represented by Formula 1 at a concentration of 0, 0.01, 0.03, 0.1, 0.3, 1, 3, and 10 (M). After reaction for 72 hours, the plate treated with the compound was left at room temperature for 30 minutes, then further treated with 100 μL of reagent, and shaken at room temperature for 10 minutes. Finally, the ratio of fluorescence values at 570 nm was obtained using the equipment to quantitatively measure and confirmed the cell growth inhibitory ability of the compounds. The measurement values measured at eight compound concentrations were analyzed using the Prism program (version 5.01, Graphpad Software, Inc.), and the IC50 value, which is an indicator of the cell growth inhibitory ability of the compound, was calculated.

Ba/F3 EGFR L858R/T790M = assay: CellTiter-Glo cell viability, Ba/F3 EGFR L858R/T790M; assay type: cell-based; settings: 72 hours
Protocol: An experiment to measure the activity of the compounds of the present invention against the mutant Ba/F3 EGFR cell line was performed as follows using the CellTiter-Glo system sold by Promega. The CellTiter-Glo assay is a method to confirm the cell viability by measuring ATP present in cells in cell culture. The Ba/F3 EGFR L858R, Ba/F3 EGFR L858R/T790M, Ba/F3 EGFR L858R/T790M/C797S mutant cell line was used. The Ba/F3 EGFR L858R, Ba/F3 EGFR L858R/T790M, and Ba/F3 EGFR L858R/T790M/C797S mutant cell lines was cultured in RPMI containing 10% FBS and 1% penicillin-streptomycin with 1 μg of puromycin in an incubator at 37° C. and 5% CO2.
Analysis of the inhibitory ability effect of the compounds against EGFR was conducted according to the following analysis reaction recipe.
as §3, with “2500 cells/90 μl” for “1000 cells/100 μL”, “(μM).” for “(M).”, “μl” for “μL”, “the” for “the cell growth”

Sequence of EGFR A763_Y764insFHEA (P00533 other isoform, or with tags, fused parts or gaps del 1-694/ins FHEA behind 763 limits assumed): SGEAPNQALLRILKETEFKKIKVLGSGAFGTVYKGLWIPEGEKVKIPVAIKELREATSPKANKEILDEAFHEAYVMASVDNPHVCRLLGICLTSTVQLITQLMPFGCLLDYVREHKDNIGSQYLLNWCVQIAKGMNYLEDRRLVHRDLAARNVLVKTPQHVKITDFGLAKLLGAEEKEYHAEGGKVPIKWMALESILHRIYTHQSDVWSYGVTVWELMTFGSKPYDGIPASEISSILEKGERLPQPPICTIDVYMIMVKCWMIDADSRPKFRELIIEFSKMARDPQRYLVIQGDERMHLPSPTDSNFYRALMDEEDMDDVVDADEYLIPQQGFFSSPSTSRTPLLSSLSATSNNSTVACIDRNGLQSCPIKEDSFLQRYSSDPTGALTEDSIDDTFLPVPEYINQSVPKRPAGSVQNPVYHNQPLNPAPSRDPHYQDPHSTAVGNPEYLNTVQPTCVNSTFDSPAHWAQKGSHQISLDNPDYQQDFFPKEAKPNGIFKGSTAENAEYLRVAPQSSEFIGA
Sequence of EGFR del19/T790M (P00533 other isoform, or with tags, fused parts or gaps T790M/del 1-668/del 746-750 limits assumed): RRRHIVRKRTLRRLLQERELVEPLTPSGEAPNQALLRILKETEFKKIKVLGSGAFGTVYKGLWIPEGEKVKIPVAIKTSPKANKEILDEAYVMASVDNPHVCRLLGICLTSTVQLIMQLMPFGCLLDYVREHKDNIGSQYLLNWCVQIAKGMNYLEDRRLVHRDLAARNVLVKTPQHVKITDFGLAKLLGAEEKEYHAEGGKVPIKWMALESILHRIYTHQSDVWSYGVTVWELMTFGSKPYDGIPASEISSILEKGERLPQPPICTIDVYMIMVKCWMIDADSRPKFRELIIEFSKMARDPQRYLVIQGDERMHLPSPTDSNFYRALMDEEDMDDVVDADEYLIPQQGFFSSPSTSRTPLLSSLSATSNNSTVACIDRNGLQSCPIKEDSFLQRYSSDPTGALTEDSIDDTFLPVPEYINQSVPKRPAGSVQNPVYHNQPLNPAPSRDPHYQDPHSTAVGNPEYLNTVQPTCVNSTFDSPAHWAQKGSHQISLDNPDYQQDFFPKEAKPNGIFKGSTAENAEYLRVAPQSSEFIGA

Compound	IC50 (EGFR del19/T790M) [µM]	IC50 (EGFR A763_Y764insFHEA) [µM]	IC50 [1] [µM]	IC50 (Ba/F3 EGFR L858R/T790M) [µM]
COc1cc(N2CCC(N3CCN(C)CC3)CC2)ccc1Nc1ncc(Cl)c(Nc2cccc3c2N(S(C)(=O)=O)CC3)n1 [Example 2, 5-chloro-N2-(2-methoxy-4-(4-(4-methylpiperazin-1-yl)piperidin-1-yl)phenyl)-N4-(1-(methylsulfonyl)indolin-7-yl)pyrimidine-2,4-diamine]	< 0.001	0.0017	0.21	< 0.03
COc1cc(N2CCC(N3CCN(C)CC3)CC2)ccc1Nc1ncc(Cl)c(Nc2cccc3c2N(S(C)(=O)=O)CCC3)n1 [Example 5, 5-chloro-N2-(2-methoxy-4-(4-(4-methylpiperazin-1-yl)piperidin-1-yl)phenyl)-N4-(1-(methylsulfonyl)-1,2,3,4-tetrahydroquinolin-8-yl)pyrimidine-2,4-diamine]	< 0.001	0.011	0.36	< 0.03
